These results are taken from BindingDB's records for doi:10.7270/Q20863PV (University of Pittsburgh, 2006).

The term IC50 denotes the concentration that gives 50% inhibition. High values mean lower potency, low ones higher potency.

The target in this experiment is T1, Dual specificity protein phosphatase 1 (Homo sapiens, UniProt P28562).
T1 sequence (P28562 whole entry): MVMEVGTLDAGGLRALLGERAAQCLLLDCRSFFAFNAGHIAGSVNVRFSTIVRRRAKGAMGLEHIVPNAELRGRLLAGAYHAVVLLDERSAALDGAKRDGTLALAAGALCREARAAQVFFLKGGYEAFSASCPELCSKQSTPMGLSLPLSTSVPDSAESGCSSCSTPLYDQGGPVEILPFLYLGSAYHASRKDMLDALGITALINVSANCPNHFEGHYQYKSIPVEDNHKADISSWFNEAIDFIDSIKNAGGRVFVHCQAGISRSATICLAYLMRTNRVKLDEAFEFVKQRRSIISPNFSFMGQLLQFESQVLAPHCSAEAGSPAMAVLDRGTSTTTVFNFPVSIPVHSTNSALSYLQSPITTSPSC
The experiment can be described thus: DTT effect on MKP-1 inhibitor potency – biochemical, DTT added, probe assessment, dose response (AID 558).
Compound `[O-]/[N+](=C/c1ccc(F)cc1)c1ccccc1` [(E)-(4-fluorobenzylidene)(phenyl)azane oxide] yielded an IC50 of over 50 µM. The compound `CC1=C(/C=C/C(C)=C/C=C/C(C)=C/C(=O)O)C(C)(C)CCC1` [ALL-TRANS-RETINOIC ACID] showed a 50% inhibitory concentration (IC50) of 48.6 µM. In turn, `CC(=O)[C@@H]1[C@@H]2C(=O)N(c3ccc(F)c(Cl)c3)C(=O)[C@@H]2C2c3ccccc3C=CN21` (some centres undefined) [MLS000040594] displayed an IC50 of over 50 µM. `COCCCn1c(N)c(C(=O)NCCC(C)C)c2nc3ccccc3nc21` [MLS000041744] had an IC50 of over 50 µM. `CCn1c(SCC(=O)Nc2ccc3c(c2)c2ccccc2n3CC)nnc1-c1ccco1` [MLS000050867] returned an IC50 of 21.1 µM.

`O=C1C(=C2C(=O)c3ccccc3C2=O)Nc2ccccc21` [MLS000071738] registered an IC50 of over 50 µM. Take `COc1ccc(-n2c(NC(=O)c3ccco3)c(C#N)c3nc4ccccc4nc32)cc1` [MLS000079925]: the IC50 is over 50 µM. For the compound `COc1ccc(Cn2c(C)nc3c(c2=O)c2nc4ccccc4nc2n3Cc2ccco2)cc1` [MLS000079944], half-maximal inhibition (IC50) required 22 µM. In other words, the double-digit micromolar range.

`Cc1ccc(-c2csc(NC(=O)c3ccno3)n2)cc1` [MLS000081820] registered a concentration for half-maximal inhibition (IC50) of 49.8 µM. For the compound `CC(C)Sc1nc2sc3c(c2c2nnc(SCC(=O)NCc4ccco4)n12)CCCC3` [MLS000082957], half-maximal inhibition (IC50) was put at 22.7 µM. `Nc1nc2c(s1)CCc1c-2cnn1-c1ccccc1` [MLS000085948] gave an IC50 of over 50 µM. `Cc1cc(NC(=O)c2ccc(S(=O)(=O)N3CCCC3)cc2)nc2c1c(=O)oc1ccccc12` [MLS000091355]: the IC50 came to 26.1 µM. For `FC(F)(F)c1ccc(N2CCOCC2)c(Nc2nc3ccccc3n3cnnc23)c1` [MLS000093276], the IC50 is over 50 µM. `COC(=O)c1ccccc1NC(=O)CN1C(=O)C2CCCN2c2ncc(Cl)cc21` (centres undefined) [MLS000094302] gave an IC50 of over 50 µM. `CCc1ccc(NC(=O)CSc2nc3ccccc3c(=O)n2CCN2CCOCC2)cc1` [MLS000095236] returned an IC50 of over 50 µM. Consider `Cc1c(N=c2c(=O)c3ccccc3c2=O)c(=O)n(-c2ccccc2)n1C` [MLS000105950], for which the IC50 was over 50 µM. As to `CCOc1ccc2noc3c2c1C(=O)c1ccccc1-3` [MLS000106837], the IC50 was 30.2 µM. `COc1ccc2noc3c2c1C(=O)c1ccccc1-3` [MLS000106874] displayed an IC50 of 14.3 µM.

In the case of `CCOC(=O)c1ccc2c(c1)C1C=CCC1C(C(=O)O)N2` (centres undefined) [MLS-0025126.0001], the IC50 was determined as 32.7 µM.

Compound `O=C(NC1(O)C(=O)c2ccccc2C1=O)c1ccccc1` [N-(2-hydroxy-1,3-dioxo-2-indenyl)benzamide] had an IC50 of over 50 µM. The figure for `O=C(OC1CCCCC1)c1ccc2c(c1)C1C=CCC1C(C(=O)O)N2` (centres undefined) [SMR000019385] is 17.5 µM; for `O=C1c2ccccc2-c2onc3ccc(NCCCn4ccnc4)c1c23` [SMR000044769] it is 35.2 µM; for `CCCCn1c(NC(=O)c2ccccc2)c(C#N)c2nc3ccccc3nc21` [SMR000060333] it is 32.4 µM. The figure for `N#Cc1c(N2CCCC2)nc(N)c2c(N)nc(N3CCCC3)cc12` [SMR000061605] is over 50 µM.
